Assay results as given in PMC7482066, “Unstable Mechanisms of Resistance to Inhibitors of Escherichia coli Lipoprotein Signal Peptidase” (mBio, 2020).
Values after ≈ are worked out from the molar mass of the structure shown. “Also recorded” adds a separate entry of the source.

Legend:
[1] = tested on: G0790-resistant E. coli CFT073; experiment: MIC against G0790-resistant CFT073 strains; format: cell-based
Experimental: MICs of compounds in each strain were determined in cation-adjusted Mueller-Hinton II (MHII) broth or MHII agar according to the Clinical and Laboratory Standards Institute protocol (CLSI 2006). To measure the effect of protein binding on activity, MIC assays were performed in the presence of 50% heat-inactivated human serum. The serum killing assay was performed as described previously ([43]). FOR assays and growth on plates containing G0790 were always performed on MHII agarose plates.
(§1) Frequencies of resistance (FORs) of G0790 were determined for E. coli CFT073, E. cloacae (ATCC 13047), and K. pneumoniae (ATCC 700603) as previously published ([70]). To determine the FOR, 3 to 4 colonies of the strain to be tested were picked from a fresh plate and diluted to an optical density at 600 nm (OD600) of 0.00001 in 1 ml of cation-adjusted MHBII. Ten independent 5-ml cultures in MHBII were prepared by inoculating 5 μl (approximately 1 × 10^3 CFU) and incubated at 37°C for 18 h. The bacteria were pelleted by centrifugation at 4000 × g at 4°C for 15 min and resuspended in 0.5 ml fresh MHBII. Two hundred fifty microliters of the bacterial suspension was plated evenly on MHII agarose plates containing globomycin or G0790 at a final concentration of 4× and 8× MIC. In parallel, CFU from each independent culture was measured by spotting 10-fold serial dilutions on MHII agar plates and incubated at 37°C for 18 h. Colonies were counted at days 1, 2, and 3 postinoculation. FOR was calculated as the ratio of the total number of resistant colonies relative to the total CFU plated. For strains that had no resistant colonies growing on plates, the p0 method was used to calculate the FOR (FOR = m/total CFU plated, where m = −ln p0 and p0 is the proportion of cultures with no mutants; 0.7 ≥ p0 ≥ 0.1), as described previously ([71]). Colonies were picked and resuspended in 30 μl MHBII broth medium, and 10 μl was plated on an MHII agar plate containing G0790 to be used to determine the MIC. Of the remaining 20 μl, half was used to inoculate 1.5 ml MHBII broth medium containing G0790 and grown at 37°C for 18 h to generate cell lysates for Western blot analysis, isolate genomic DNA (gDNA) for whole-genome sequencing, and for frozen glycerol stocks.

[2] = tested on: E. cloacae 13047; experiment: Frequency of resistance (FOR); format: cell-based; conditions: 4× MIC, MHII agarose
Experimental: as §1

[3] = tested on: E. coli CFT073 Δlpp; experiment: Frequency of resistance (FOR); format: cell-based; conditions: for FOR (frequency of resistance): MHII agarose
Experimental: as §1

[4] = tested on: E. coli CFT073; experiment: Frequency of resistance (FOR); format: cell-based; conditions: 4× MIC, MHII agarose
Experimental: as §1

[5] = tested on: K. pneumoniae 700603; experiment: Frequency of resistance (FOR); format: cell-based; conditions: 4× MIC
Experimental: as §1

[6] = tested on: G0790-resistant E. coli CFT073; experiment: Population analysis profile (heteroresistance); format: cell-based; conditions: MHII agarose, 18 h, 37°C
Experimental: The population analysis profiles of G0790 heteroresistant subpopulations were determined according to a method described previously ([79]). Briefly, three independent cultures for each G0790-resistant mutant strain were grown overnight at 37°C in MHBII containing G0790 at sub-MICs to maintain selective pressure. Five microliters or 10-fold serial dilution (10^−1 to 10^−7) in duplicates for each culture were transferred to MHII agarose plates or MHII agarose plates containing a range of G0790 concentrations (100, 75, 50, 37.5, 25, 12.5, 6.25, 3.125, 1.56, 0.8, and 0.4 μM). CFU were enumerated after incubation at 37°C for 18 h. Heteroresistance was defined using the criteria published by El-Halfawy and colleagues, which states there should be a >8-fold difference between the highest noninhibitory concentration and the highest inhibitory concentration ([2], [80]).

[7] = tested on: E. coli CFT073; experiment: Bactericidal activity, CFU over time; format: cell-based; conditions: G0790 at 2× MIC, two independent experiments in duplicates
[8] = tested on: E. coli CFT073; experiment: Electron microscopy / live-cell imaging of morphology; format: cell-based; conditions: CFT073, 2× MIC, 1 h (EM)
Experimental: Electron microscopy was performed as previously described ([61]). […] Cells were immediately placed between a coverslip and a 1% MHII agarose pad containing 12.4 μM G0790 and 10 μg/ml gentamicin for imaging. Cells were maintained at 37°C during imaging with a stage-top chamber (Okolab Inc.). Cells were imaged on a Nikon Eclipse Ti inverted confocal microscope (Nikon Instruments Inc.) coupled with an UltraVIEW VoX (PerkinElmer Inc.) and a 100× (numerical aperture [NA] 1.40) oil-immersion lens objective. Images were captured at various times using an ORCA-Flash 4.0 CMOS camera (Hamamatsu Photonics), collected using Volocity software (Quorum Technologies), and processed using Fiji ([66]).

[9] = tested on: G0790-resistant CFT073; experiment: MIC after in vitro passaging of G0790-resistant strains; format: cell-based, E. coli; conditions: in words
Experimental: This bacterial culture is referred to as passage 1 (P1). […] For each passage, MICs were measured and cell lysates and genomic DNA were prepared for Western blot and whole-genome sequencing analyses, respectively.

CCCCCC[C@H]1OC(=O)CNC(=O)[C@H]([C@H](C)O)NC(=O)[C@H](CN)NC(=O)[C@H](C2CCCCC2)NC(=O)[C@H](CCC)N(C)C(=O)[C@@H]1C [G0790]
MIC ([1]; CFT073 4×-R1, ISEc10-istB insertion (3′ of lpp)): 19.5 µg/mL (≈ 29.2 µM) | MIC ([1]; CFT073 4×-R2, Lpp p.Asp54fs, Non-lspA_GA): 19.5 µg/mL (≈ 29.2 µM) | MIC ([1]; CFT073 4×-R3, lspA_GA): 19.5 µg/mL (≈ 29.2 µM) | MIC ([1]; CFT073 4×-R4, lpp deletion, Non-lspA_GA): 19.5 µg/mL (≈ 29.2 µM) | MIC ([1]; CFT073 4×-R6, ISEc10-istB insertion (3′ of lpp)): 39 µg/mL (≈ 58.5 µM) | MIC ([1]; CFT073 4×-R7, ISEc10-istB insertion (3′ of lpp), Non-lspA_GA): 39 µg/mL (≈ 58.5 µM) | MIC ([1]; CFT073 4×-R9, lpp deletion): 19.5 µg/mL (≈ 29.2 µM) | MIC ([1]; CFT073 4×-R10, lspA_GA): 19.5 µg/mL (≈ 29.2 µM) | MIC ([1]; CFT073 8×-R1, lspA_GA): 19.5 µg/mL (≈ 29.2 µM) | MIC ([1]; CFT073 8×-R3, 5′ lpp deletion, Non-lspA_GA): 39 µg/mL (≈ 58.5 µM) | MIC ([1]; CFT073 8×-R4, lpp deletion): 39 µg/mL (≈ 58.5 µM) | MIC ([1]; CFT073 8×-R5, ISEc10-istB insertion (5′ of lpp), lspA_GA): 39 µg/mL (≈ 58.5 µM) | MIC ([1]; CFT073 8×-R6, lpp deletion, Non-lspA_GA): 19.5 µg/mL (≈ 29.2 µM) | FOR (frequency of resistance) [2]: 2.7 × 10^−9 | Decrease in FOR in CFT073 Δlpp compared to WT CFT073 ([3]; 4× MIC): ~85 fold | FOR (frequency of resistance) ([3]; 4× MIC): 3.4 × 10^−11 | FOR (frequency of resistance) ([3]; 8× MIC, no colonies, p0 method): <1.7 × 10^−11 | FOR (frequency of resistance) [4]: 2.9 × 10^−9 | FOR increase in K. pneumoniae 700603 relative to E. coli [5]: ~17 fold | FOR (frequency of resistance) ([5]; MHII agarose): 4.8 × 10^−8 | Fold difference between highest inhibitory and highest noninhibitory concentration ([6]; CFT073 4×-R3): 128 fold | Fold difference between highest inhibitory and highest noninhibitory concentration ([6]; CFT073 4×-R10): 96 fold | Fold difference between highest inhibitory and highest noninhibitory concentration ([6]; CFT073 8×-R5): 12 fold | Bactericidal activity [7]: bactericidal | Cell morphology / membrane accumulation [8]: globular cell morphology and accumulation of bacterial membranes; also recorded: changes in cellular morphology and membrane accumulation | MIC after passaging in the absence of G0790, lspA_GA mutants ([9]; 4×-R3, 4×-R10, 8×-R1, 8×-R5, 3 days): comparable to the MIC of the parental WT strain | Phenotype after passaging in the absence of G0790, 8×-R5 ([9]; 8×-R5 (GA and ISEc10-istB insertion upstream of lpp)): reverted to the WT phenotype | Resistance after passaging in the absence of G0790, lpp insertion (downstream) or lpp deletion strains ([9]; 3 days): maintained resistance to G0790
